Numbers after ± are expanded uncertainties.

The data set can be described thus: activity coefficient (dimensionless); of the first substance listed, at infinite dilution; xn = mol fraction of the nth substance listed. Conditions: 101 kPa, Liquid, Chromatography, x1 = 0.

Take `C1CCCCCCC1` [cyclooctane] + CCCCCCOCn1cc[n+](COCCCCCC)c1.O=S(=O)([N-]S(=O)(=O)C(F)(F)F)C(F)(F)F: the activity coefficient (298.15 K) came out at 3.2 ± 0.22; the activity coefficient (308.15 K) was 3.06 ± 0.21; the activity coefficient (318.15 K) came out at 2.94 ± 0.2; the activity coefficient (328.15 K) turned out to be 2.82 ± 0.19; the activity coefficient (338.15 K) was 2.72 ± 0.19; the activity coefficient (348.15 K) amounted to 2.63 ± 0.18. Further, the activity coefficient (358.15 K) came to 2.54 ± 0.17 and the activity coefficient (368.15 K) turned out to be 2.47 ± 0.17.
In the case of `C1CCCC1` [cyclopentane] + CCCCCCOCn1cc[n+](C)c1.O=S(=O)([N-]S(=O)(=O)C(F)(F)F)C(F)(F)F, the activity coefficient by setting is: (298.15 K) 4.19 ± 0.29; (308.15 K) 3.99 ± 0.27; (318.15 K) 3.82 ± 0.26; (328.15 K) 3.66 ± 0.25; (338.15 K) 3.51 ± 0.24; (348.15 K) 3.38 ± 0.23. Further, the activity coefficient is 3.27 ± 0.22 (358.15 K) and 3.16 ± 0.22 (368.15 K).
For the molecule `C1CCCC1` [cyclopentane] + CCCCCCOCn1cc[n+](COCCCCCC)c1.O=S(=O)([N-]S(=O)(=O)C(F)(F)F)C(F)(F)F, the activity coefficient by setting is: (298.15 K) 1.84 ± 0.12; (308.15 K) 1.78 ± 0.12; (318.15 K) 1.74 ± 0.12; (328.15 K) 1.69 ± 0.11; (338.15 K) 1.65 ± 0.11; (348.15 K) 1.61 ± 0.11. In addition, the activity coefficient reads like this: (358.15 K) 1.57 ± 0.1; (368.15 K) 1.54 ± 0.1.
As for `CCCCCCCCCC` [decane] + CCCCCCOCn1cc[n+](C)c1.O=S(=O)([N-]S(=O)(=O)C(F)(F)F)C(F)(F)F, the activity coefficient (298.15 K) is 23.5 ± 1.6; the activity coefficient (308.15 K) was 21.7 ± 1.5; the activity coefficient (318.15 K) amounted to 20.2 ± 1.4; the activity coefficient (328.15 K) was determined as 18.9 ± 1.3; the activity coefficient (338.15 K) turned out to be 17.7 ± 1.2; the activity coefficient (348.15 K) worked out at 16.7 ± 1.1. For the same molecule, the activity coefficient is, setting by setting: (358.15 K) 15.8 ± 1.1; (368.15 K) 14.9 ± 1.
As for `CCCCCCCCCC` [decane] + CCCCCCOCn1cc[n+](COCCCCCC)c1.O=S(=O)([N-]S(=O)(=O)C(F)(F)F)C(F)(F)F, the activity coefficient is 7.38 ± 0.5 (298.15 K); 7 ± 0.48 (308.15 K); 6.66 ± 0.45 (318.15 K); 6.38 ± 0.43 (328.15 K); 6.11 ± 0.42 (338.15 K); 5.87 ± 0.4 (348.15 K). Further, the activity coefficient worked out at 5.65 ± 0.39 (358.15 K) and 5.46 ± 0.37 (368.15 K).
With `CCOCC` [diethyl ether] + CCCCCCOCn1cc[n+](C)c1.O=S(=O)([N-]S(=O)(=O)C(F)(F)F)C(F)(F)F, the activity coefficient by setting is: (298.15 K) 1.35 ± 0.09; (308.15 K) 1.37 ± 0.09; (318.15 K) 1.38 ± 0.09; (328.15 K) 1.4 ± 0.09; (338.15 K) 1.41 ± 0.09; (348.15 K) 1.43 ± 0.09. For the same molecule, the activity coefficient (358.15 K) is 1.44 ± 0.09 and the activity coefficient (368.15 K) came out at 1.45 ± 0.1.
For the molecule `CCOCC` [diethyl ether] + CCCCCCOCn1cc[n+](COCCCCCC)c1.O=S(=O)([N-]S(=O)(=O)C(F)(F)F)C(F)(F)F, the activity coefficient runs as follows: (298.15 K) 0.811 ± 0.052; (308.15 K) 0.826 ± 0.053; (318.15 K) 0.839 ± 0.054; (328.15 K) 0.854 ± 0.055; (338.15 K) 0.867 ± 0.055; (348.15 K) 0.879 ± 0.056. The activity coefficient reads like this: (358.15 K) 0.89 ± 0.057; (368.15 K) 0.904 ± 0.057.
Regarding `CCCOCCC` [dipropyl ether] + CCCCCCOCn1cc[n+](C)c1.O=S(=O)([N-]S(=O)(=O)C(F)(F)F)C(F)(F)F, the activity coefficient stood at 2.92 ± 0.2 (298.15 K); 2.89 ± 0.2 (308.15 K); 2.87 ± 0.2 (318.15 K); 2.85 ± 0.19 (328.15 K); 2.83 ± 0.19 (338.15 K); 2.81 ± 0.19 (348.15 K). In addition, the activity coefficient is, setting by setting: (358.15 K) 2.79 ± 0.19; (368.15 K) 2.77 ± 0.19.
As to `CCCOCCC` [dipropyl ether] + CCCCCCOCn1cc[n+](COCCCCCC)c1.O=S(=O)([N-]S(=O)(=O)C(F)(F)F)C(F)(F)F, the activity coefficient came to 1.49 ± 0.098 (298.15 K); 1.49 ± 0.098 (308.15 K); 1.49 ± 0.098 (318.15 K); 1.5 ± 0.098 (328.15 K); 1.5 ± 0.099 (338.15 K); 1.5 ± 0.099 (348.15 K). Also, the activity coefficient by setting is: (358.15 K) 1.5 ± 0.099; (368.15 K) 1.5 ± 0.099.
Regarding `CCO` [ethanol] + CCCCCCOCn1cc[n+](C)c1.O=S(=O)([N-]S(=O)(=O)C(F)(F)F)C(F)(F)F, the activity coefficient runs as follows: (298.15 K) 1.59 ± 0.11; (308.15 K) 1.44 ± 0.09; (318.15 K) 1.31 ± 0.09; (328.15 K) 1.2 ± 0.08; (338.15 K) 1.1 ± 0.07; (348.15 K) 1.03 ± 0.06. The activity coefficient (358.15 K) is 0.952 ± 0.06 and the activity coefficient (368.15 K) was found to be 0.891 ± 0.057.
As to `CCO` [ethanol] + CCCCCCOCn1cc[n+](COCCCCCC)c1.O=S(=O)([N-]S(=O)(=O)C(F)(F)F)C(F)(F)F, the activity coefficient (298.15 K) amounted to 1.25 ± 0.08; the activity coefficient (308.15 K) was 1.14 ± 0.07; the activity coefficient (318.15 K) amounted to 1.04 ± 0.065; the activity coefficient (328.15 K) was 0.958 ± 0.06; the activity coefficient (338.15 K) worked out at 0.886 ± 0.056; the activity coefficient (348.15 K) stood at 0.824 ± 0.053. Besides, the activity coefficient is, setting by setting: (358.15 K) 0.767 ± 0.05; (368.15 K) 0.719 ± 0.048.
On to `CCc1ccccc1` [ethylbenzene] + CCCCCCOCn1cc[n+](C)c1.O=S(=O)([N-]S(=O)(=O)C(F)(F)F)C(F)(F)F, for which the activity coefficient is, setting by setting: (308.15 K) 1.49 ± 0.098; (318.15 K) 1.49 ± 0.098; (328.15 K) 1.49 ± 0.098; (338.15 K) 1.5 ± 0.098; (348.15 K) 1.5 ± 0.099; (358.15 K) 1.5 ± 0.099. Besides, the activity coefficient (368.15 K) came out at 1.5 ± 0.099.
For `CCc1ccccc1` [ethylbenzene] + CCCCCCOCn1cc[n+](COCCCCCC)c1.O=S(=O)([N-]S(=O)(=O)C(F)(F)F)C(F)(F)F, the activity coefficient by setting is: (298.15 K) 0.967 ± 0.061; (308.15 K) 0.966 ± 0.061; (318.15 K) 0.965 ± 0.061; (328.15 K) 0.964 ± 0.061; (338.15 K) 0.963 ± 0.061; (348.15 K) 0.963 ± 0.061. The activity coefficient (358.15 K) came to 0.962 ± 0.06.
Turning to `CCCCCCC` [heptane] + CCCCCCOCn1cc[n+](C)c1.O=S(=O)([N-]S(=O)(=O)C(F)(F)F)C(F)(F)F, the activity coefficient reads like this: (298.15 K) 10.6 ± 0.7; (308.15 K) 10 ± 0.7; (318.15 K) 9.51 ± 0.65; (328.15 K) 9.07 ± 0.62; (338.15 K) 8.65 ± 0.59; (348.15 K) 8.28 ± 0.56. In addition, the activity coefficient by setting is: (358.15 K) 7.95 ± 0.54; (368.15 K) 7.66 ± 0.52.
As for `CCCCCCC` [heptane] + CCCCCCOCn1cc[n+](COCCCCCC)c1.O=S(=O)([N-]S(=O)(=O)C(F)(F)F)C(F)(F)F, the activity coefficient reads like this: (298.15 K) 3.94 ± 0.27; (308.15 K) 3.81 ± 0.26; (318.15 K) 3.68 ± 0.25; (328.15 K) 3.57 ± 0.24; (338.15 K) 3.46 ± 0.24; (348.15 K) 3.36 ± 0.23. Further, the activity coefficient turned out to be 3.27 ± 0.22 (358.15 K) and 3.19 ± 0.22 (368.15 K).
Consider `C=CCCCC` [hex-1-ene] + CCCCCCOCn1cc[n+](C)c1.O=S(=O)([N-]S(=O)(=O)C(F)(F)F)C(F)(F)F, for which the activity coefficient reads like this: (298.15 K) 4.89 ± 0.33; (308.15 K) 4.72 ± 0.32; (318.15 K) 4.59 ± 0.31; (328.15 K) 4.46 ± 0.3; (338.15 K) 4.33 ± 0.29; (348.15 K) 4.23 ± 0.29. Further, the activity coefficient stood at 4.12 ± 0.28 (358.15 K) and 4.03 ± 0.27 (368.15 K).
Consider `C=CCCCC` [hex-1-ene] + CCCCCCOCn1cc[n+](COCCCCCC)c1.O=S(=O)([N-]S(=O)(=O)C(F)(F)F)C(F)(F)F, for which the activity coefficient by setting is: (298.15 K) 2.25 ± 0.15; (308.15 K) 2.2 ± 0.15; (318.15 K) 2.15 ± 0.15; (328.15 K) 2.11 ± 0.14; (338.15 K) 2.07 ± 0.14; (348.15 K) 2.04 ± 0.14. The activity coefficient (358.15 K) came out at 2.01 ± 0.14 and the activity coefficient (368.15 K) stood at 1.97 ± 0.13.
For the molecule `CCCCCC` [hexane] + CCCCCCOCn1cc[n+](C)c1.O=S(=O)([N-]S(=O)(=O)C(F)(F)F)C(F)(F)F, the activity coefficient came to 8.36 ± 0.57 (298.15 K); 7.96 ± 0.54 (308.15 K); 7.59 ± 0.52 (318.15 K); 7.27 ± 0.5 (328.15 K); 6.98 ± 0.48 (338.15 K); 6.71 ± 0.46 (348.15 K). For the same molecule, the activity coefficient (358.15 K) is 6.46 ± 0.44 and the activity coefficient (368.15 K) is 6.24 ± 0.43.
`CCCCCC` [hexane] + CCCCCCOCn1cc[n+](COCCCCCC)c1.O=S(=O)([N-]S(=O)(=O)C(F)(F)F)C(F)(F)F: the activity coefficient (298.15 K) is 3.22 ± 0.22; the activity coefficient (308.15 K) is 3.13 ± 0.21; the activity coefficient (318.15 K) turned out to be 3.04 ± 0.21; the activity coefficient (328.15 K) was determined as 2.97 ± 0.2; the activity coefficient (338.15 K) was 2.9 ± 0.2; the activity coefficient (348.15 K) came to 2.83 ± 0.19. For the same molecule, the activity coefficient turned out to be 2.77 ± 0.19 (358.15 K) and 2.72 ± 0.19 (368.15 K).
As to `CO` [methanol] + CCCCCCOCn1cc[n+](C)c1.O=S(=O)([N-]S(=O)(=O)C(F)(F)F)C(F)(F)F, the activity coefficient reads like this: (298.15 K) 1.36 ± 0.09; (308.15 K) 1.24 ± 0.08; (318.15 K) 1.13 ± 0.07; (328.15 K) 1.04 ± 0.07; (338.15 K) 0.959 ± 0.06; (348.15 K) 0.894 ± 0.057. The activity coefficient amounted to 0.832 ± 0.054 (358.15 K) and 0.775 ± 0.051 (368.15 K).
